Tests used:
Assay type in all cases: cell-based
[1] = tested on: PC-9 (KRAS wild type human lung adenocarcinoma cell line); experiment: KRAS 3D-Cell Proliferation Assay, PC-9 (Example 503); conditions: 168 h, PC-9 3D culture, 7 days, CellTiter-Glo 3D, read-out: Prolif PC9 3D ATP IC50
Protocol: Example 503: KRAS 3D-Cell Proliferation Assays. Cellular potencies of compounds are assessed by evaluating inhibition of proliferation in 3D cultures of homozygous mutant KRAS G12D human pancreatic cell lines (AsPC-1 and HPAC) as compared to a KRAS wild type human lung adenocarcinoma cell line (PC-9 and/or H1975). Cells are seeded into 384-well black round-bottom, ultra-low attachment assay plates in 50 uL cell growth medium (RPMI-1640 with 10% fetal bovine serum and 2 mM L-glutamine). After overnight incubation at 37° C. and 5% CO2, compounds solubilized in DMSO are added as dilution series to the wells in a total volume of 150 nL (0.3% DMSO final). The cells are incubated for 7 days at 37° C. and 5% CO2. Cell proliferation is quantitated by addition of 40 uL/well of CellTiter-GloÒ 3D (Promega), and the well contents are mixed 20× at high speed using liquid handling automation workstation (Bravo with 384-well head) and centrifuged at 1500 rpm for 2 minutes to eliminate bubbles. This reagent in combination with mechanical disruption releases the cellular ATP to promote activity in a luciferase-based enzyme/substrate chemiluminescent detection system. After a 30-minute incubation under ambient conditions with shaking and an additional 10 minutes without shaking, the luminescence is read on a plate reader (e.g., EnVision [PerkinElmer]). The results are normalized to percent inhibition based on the following control samples: DMSO (0% inhibition) and 1 μM staurosporine (100% inhibition). The normalized luminescence results are plotted against compound concentration, and the data are fit to a 4-parameter Hill equation to determine the IC50 values.

[2] = tested on: AsPC-1 (homozygous mutant KRAS G12D human pancreatic cell line); experiment: KRAS 3D-Cell Proliferation Assay, AsPC-1 (Example 503); conditions: Homo sapiens, ASPC1, 168 h, AsPC-1 3D culture, 7 days, CellTiter-Glo 3D; read-out: Prolif AsPC-1 3D ATP IC50
Summary of the method: (§1)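 3D culture, ultra-low attachment wells; RPMI-1640/10% FBS/2 mM L-glutamine. Overnight settle, then compound series, 0.3% DMSO final, 7 d, 37° C, 5% CO2. Readout: CellTiter-Glo 3D luminescence. % inhibition vs DMSO (0%) and 1 μM staurosporine (100%); IC50 via 4-parameter Hill.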

[3] = tested on: HPAC (homozygous mutant KRAS G12D human pancreatic cell line); experiment: KRAS 3D-Cell Proliferation Assay, HPAC (Example 503); conditions: Homo sapiens, HPAC, 168 h, HPAC 3D culture, 7 days, CellTiter-Glo 3D; read-out: Prolif HPAC 3D ATP IC50
Summary of the method: as §1

[4] = tested on: H1975 (KRAS wild type human lung adenocarcinoma cell line); experiment: KRAS 3D-Cell Proliferation Assay, H1975 (Example 503); conditions: Homo sapiens, NCI-H1975, 168 h, H1975 3D culture, 7 days, CellTiter-Glo 3D; read-out: Prolif H1975 3D ATP IC50
Summary of the method: as §1

`Cc1c(F)c(N)cc(-c2nc3c4c(nc(OC[C@@H]5C[C@@H](F)CN5C)nc4c2F)N2C[C@H]4CC[C@H](N4)[C@H]2[C@H](C)O3)c1C(F)(F)F` [Compound 26, 2-Fluoro-5-((5S,5aS,6S,9R)-1-fluoro-12-(((2S,4R)-4-fluoro-1-methylpyrrolidin-2-yl)methoxy)-5-methyl-5a,6,7,8,9,10-hexahydro-5H-4-oxa-3,10a,11,13,14-pentaaza-6,9-methanonaphtho[1,8-ab]heptalen-2-yl)-3-methyl-4-(trifluoromethyl)aniline] showed an IC50 [1] of 7640 nM, an IC50 [2] of 5.19 nM and an IC50 [3] of 3.24 nM. For the same compound, the IC50 [4] was 1540 nM.

Compound `CCc1cccc2cc(O)cc(-c3nc4c5c(nc(OC[C@@]67CCCN6C[C@H](F)C7)nc5c3F)N3C[C@H]5CC[C@H](N5)[C@H]3CO4)c12` [Compound 5, 5-ethyl-4-((5aS,6S,9R)-1-fluoro-12-(((2R,7aS)-2-fluorotetrahydro-1H-pyrrolizin-7a(5H)-yl)methoxy)-5a,6,7,8,9,10-hexahydro-5H-4-oxa-3,10a,11,13,14-pentaaza-6,9-methanonaphtho[1,8-ab]heptalen-2-yl)naphthalen-2-ol] has an IC50 [1] of 9050 nM, an IC50 [2] of 6.28 nM and an IC50 [3] of 7.06 nM. The IC50 [4] was 1400 nM.

With `C#Cc1cccc2cncc(-c3nc4c5c(nc(OC[C@@]67CCCN6C[C@H](F)C7)nc5c3F)N3C[C@H]5CC[C@H](N5)[C@H]3[C@H](C)O4)c12` [Compound 39, (5S,5aS,6S,9R)-2-(5-Ethynylisoquinolin-4-yl)-1-fluoro-12-(((2R,7aS)-2-fluorotetrahydro-1H-pyrrolizin-7a(5H)-yl)methoxy)-5-methyl-5a,6,7,8,9,10-hexahydro-5H-4-oxa-3,10a,11,13,14-pentaaza-6,9-methanonaphtho[1,8-ab]heptalene] the IC50 [1] was ≥ 20000 nM, the IC50 [2] was 55.8 nM and the IC50 [3] was 35.8 nM. For the same compound, the IC50 [4] was 3970 nM.

In the case of `C[C@@H]1Oc2nc(-c3nc(N)c(F)cc3C(F)(F)F)c(F)c3nc(OC[C@]45CCN4CC(F)(F)C5)nc(c23)N2C[C@H]3CC[C@H](N3)[C@@H]12` [Compound 87, 6-((5S,5aS,6S,9R)-12-(((R)-3,3-Difluoro-1-azabicyclo[3.2.0]heptan-5-yl)methoxy)-1-fluoro-5-methyl-5a,6,7,8,9,10-hexahydro-5H-4-oxa-3,10a,11,13,14-pentaaza-6,9-methanonaphtho[1,8-ab]heptalen-2-yl)-3-fluoro-5-(trifluoromethyl)pyridin-2-amine], the IC50 [1] is reported as ≥ 20000 nM, the IC50 [2] is reported as 4030 nM and the IC50 [3] is reported as 1400 nM. It also gave an IC50 [4] of 20000 nM.

For `C#Cc1cccc2cc(O)cc(-c3nc4c5c(nc(OC[C@@]67CCCN6C[C@H](F)C7)nc5c3F)N3C[C@H]5CC[C@H](N5)[C@H]3[C@H](C)O4)c12` [Compound 11, 5-ethynyl-4-((5S,5aS,6S,9R)-1-fluoro-12-(((2R,7aS)-2-fluorotetrahydro-1H-pyrrolizin-7a(5H)-yl)methoxy)-5-methyl-5a,6,7,8,9,10-hexahydro-5H-4-oxa-3,10a,11,13,14-pentaaza-6,9-methanonaphtho[1,8-ab]heptalen-2-yl)naphthalen-2-ol], the IC50 [1] was ≥ 20000 nM, the IC50 [2] was 2.3 nM and the IC50 [3] was 2.41 nM. It also gave an IC50 [4] of 169 nM.

`C[C@@H]1Oc2nc(-c3cc(O)cc4ccccc34)c(F)c3nc(OC[C@]45CCN4CC(F)(F)C5)nc(c23)N2C[C@H]3CC[C@H](N3)[C@@H]12` [Compound 25, 4-((5S,5aS,6S,9R)-12-(((R)-3,3-difluoro-1-azabicyclo[3.2.0]heptan-5-yl)methoxy)-1-fluoro-5-methyl-5a,6,7,8,9,10-hexahydro-5H-4-oxa-3,10a,11,13,14-pentaaza-6,9-methanonaphtho[1,8-ab]heptalen-2-yl)naphthalen-2-ol] was tested, and the IC50 [1] was 11000 nM, the IC50 [2] was 464 nM and the IC50 [3] was 78.8 nM. For the same compound, the IC50 [4] was 10700 nM.

For `C[C@@H]1Oc2nc(-c3nc(N)c(F)cc3C(F)(F)F)c(F)c3nc(OC[C@@]45CCCN4CC4(CC4(F)F)C5)nc(c23)N2C[C@H]3CC[C@H](N3)[C@@H]12` (stereo partly drawn) [Compound 86, 6-((5S,5aS,6S,9R)-12-(((7a′S)-2,2-difluorodihydro-1′H,3′H-spiro[cyclopropane-1,2′-pyrrolizin]-7a′(5′H)-yl)methoxy)-1-fluoro-5-methyl-5a,6,7,8,9,10-hexahydro-5H-4-oxa-3,10a,11,13,14-pentaaza[6,9]methanonaphtho[1,8-ab]heptalen-2-yl)-3-fluoro-5-(trifluoromethyl)pyridin-2-amine], the IC50 [1] was 8750 nM, the IC50 [2] was 144 nM and the IC50 [3] was 126 nM. The IC50 [4] was 5430 nM.

Compound `Cc1cc(N)nc(-c2nc3c4c(nc(OC[C@@]56CCCN5CC5(CC5(F)F)C6)nc4c2F)N2C[C@H]4CC[C@H](N4)[C@H]2[C@H](C)O3)c1C(F)(F)F` (stereo partly drawn) [Compound 47, 6-((5S,5aS,6S,9R)-12-(((7a′S)-2,2-difluorodihydro-1′H,3′H-spiro[cyclopropane-1,2′-pyrrolizin]-7a′(5′H)-yl)methoxy)-1-fluoro-5-methyl-5a,6,7,8,9,10-hexahydro-5H-4-oxa-3,10a,11,13,14-pentaaza[6,9]methanonaphtho[1,8-ab]heptalen-2-yl)-4-methyl-5-(trifluoromethyl)pyridin-2-amine] has an IC50 [1] of 8840 nM, an IC50 [2] of 3.97 nM and an IC50 [3] of 2.95 nM. It also gave an IC50 [4] of 1530 nM.

`Cc1c(F)c(N)cc(-c2nc3c4c(nc(OC[C@@]56CCCN5C[C@H](F)C6)nc4c2F)N2C[C@H]4CC[C@H](N4)[C@H]2[C@H](C)O3)c1Cl` [Compound 76, 4-Chloro-2-fluoro-5-((5S,5aS,6S,9R)-1-fluoro-12-(((2R,7aS)-2-fluorotetrahydro-1H-pyrrolizin-7a(5H)-yl)methoxy)-5-methyl-5a,6,7,8,9,10-hexahydro-5H-4-oxa-3,10a,11,13,14-pentaaza-6,9-methanonaphtho[1,8-ab]heptalen-2-yl)-3-methylaniline] showed an IC50 [1] of 5710 nM, an IC50 [2] of 14.1 nM and an IC50 [3] of 4.62 nM. For the same compound, the IC50 [4] was 248 nM.

`C=C1CN2CCC[C@@]2(COc2nc3c4c(nc(-c5cc(N)c(F)c(C)c5C(F)(F)F)c(F)c4n2)O[C@@H](C)[C@@H]2[C@@H]4CC[C@H](CN32)N4)C1` [Compound 57, 2-Fluoro-5-((5S,5aS,6S,9R)-1-fluoro-5-methyl-12-(((S)-2-methylenetetrahydro-1H-pyrrolizin-7a(5H)-yl)methoxy)-5a,6,7,8,9,10-hexahydro-5H-4-oxa-3,10a,11,13,14-pentaaza-6,9-methanonaphtho[1,8-ab]heptalen-2-yl)-3-methyl-4-(trifluoromethyl) aniline] was tested, and the IC50 [1] was 3110 nM, the IC50 [2] was 0.361 nM and the IC50 [3] was 2.59 nM. The IC50 [4] was 251 nM.

For `Cc1cc(N)cc(-c2nc3c4c(nc(OC[C@@]56CCCN5C[C@H](F)C6)nc4c2F)N2C[C@H]4CC[C@H](N4)[C@H]2[C@H](C)O3)c1C(F)(F)F` [Compound 16, 3-((5S,5aS,6S,9R)-1-fluoro-12-(((2R,7aS)-2-fluorotetrahydro-1H-pyrrolizin-7a(5H)-yl)methoxy)-5-methyl-5a,6,7,8,9,10-hexahydro-5H-4-oxa-3,10a,11,13,14-pentaaza-6,9-methanonaphtho[1,8-ab]heptalen-2-yl)-5-methyl-4-(trifluoromethyl)aniline], the IC50 [1] was ≥ 20000 nM, the IC50 [2] was 1.3 nM and the IC50 [3] was 0.7 nM. It also gave an IC50 [4] of 255 nM.

Compound `Cc1c(F)c(N)cc(-c2nc3c4c(nc(OC[C@H]5CC(F)(F)CN5C)nc4c2F)N2C[C@H]4CC[C@H](N4)[C@H]2[C@H](C)O3)c1C(F)(F)F` [Compound 66, 5-((5S,5aS,6S,9R)-12-(((R)-4,4-difluoro-1-methylpyrrolidin-2-yl)methoxy)-1-fluoro-5-methyl-5a,6,7,8,9,10-hexahydro-5H-4-oxa-3,10a,11,13,14-pentaaza-6,9-methanonaphtho[1,8-ab]heptalen-2-yl)-2-fluoro-3-methyl-4-(trifluoromethyl)aniline] has an IC50 [1] of 4780 nM, an IC50 [2] of 41.4 nM and an IC50 [3] of 27.6 nM. For the same compound, the IC50 [4] was 7150 nM.

`Cc1cc(N)c(F)c(-c2nc3c4c(nc(OC[C@@]56CCCN5C[C@H](F)C6)nc4c2F)N2C[C@H]4CC[C@H](N4)[C@H]2[C@H](C)O3)c1C(F)(F)F` [Compound 34, 2-Fluoro-3-((5S,5aS,6S,9R)-1-fluoro-12-(((2R,7aS)-2-fluorotetrahydro-1H-pyrrolizin-7a(5H)-yl)methoxy)-5-methyl-5a,6,7,8,9,10-hexahydro-5H-4-oxa-3,10a,11,13,14-pentaaza-6,9-methanonaphtho[1,8-ab]heptalen-2-yl)-5-methyl-4-(trifluoromethyl)aniline] was tested, and the IC50 [1] was 6950 nM, the IC50 [2] was 0.692 nM and the IC50 [3] was 0.54 nM. It also gave an IC50 [4] of 340 nM.

From patent US12338256B2, “Aza-tetracyclic oxazepine compounds and uses thereof” (Genentech, Inc., priority 2022, dated 2025)
